The numbers were not newly measured in patent EP1694242B1, “PROCESS FOR MAKING PHARMACEUTICAL 7-(2-TRIMETHYLSILYLETHYL) CAMPTOTHECIN FORMULATIONS” (BIONUMERIK PHARMACEUTICALS, INC., priority 2003, dated 2005), which cites them from elsewhere.

The conditions of the data set: fraction of the potency of the lactone form; background statement.

Regarding `CC[C@@](O)(C(=O)O)c1cc2n(c(=O)c1CO)Cc1cc3ccccc3nc1-2` [carboxylate form of CPT], the “antitumor potency of the carboxylate form relative to the lactone form of CPT” value was “one-tenth”.
